The record followed here is patent US9580416B2, “Inhibitors of Bruton's tyrosine kinase” (PHARMACYCLICS LLC, priority 2014, dated 2017).

By IC50 is commonly meant the concentration at which inhibition is half-maximal.

Common to all, as to type: biochemical
For one experiment, the target named is Btk (Homo sapiens, UniProt Q06187). Description: Btk kinase activity, TR-FRET assay. Particulars: read-out: Btk (IC50). Put shortly: (§1)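 Enzyme (Btk 0.5 nM; Lck 6 nM) reacted 1 h with inhibitor, ATP at Km and biotin-peptide substrate in pH 7.4 buffer, 10% DMSO. Phosphopeptide detected by Eu-p-Tyr100 antibody plus streptavidin-APC (665/615 nm). IC50 calculated from fitted Ki(app) via ATP/Km correction plus half total enzyme.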
Background: TR-FRET usually uses a lanthanide donor and a delayed reading to cut background.

Another experiment concerns the target T1, JAK3 (Homo sapiens, UniProt P52333).
T1 sequence (P52333 1-1124): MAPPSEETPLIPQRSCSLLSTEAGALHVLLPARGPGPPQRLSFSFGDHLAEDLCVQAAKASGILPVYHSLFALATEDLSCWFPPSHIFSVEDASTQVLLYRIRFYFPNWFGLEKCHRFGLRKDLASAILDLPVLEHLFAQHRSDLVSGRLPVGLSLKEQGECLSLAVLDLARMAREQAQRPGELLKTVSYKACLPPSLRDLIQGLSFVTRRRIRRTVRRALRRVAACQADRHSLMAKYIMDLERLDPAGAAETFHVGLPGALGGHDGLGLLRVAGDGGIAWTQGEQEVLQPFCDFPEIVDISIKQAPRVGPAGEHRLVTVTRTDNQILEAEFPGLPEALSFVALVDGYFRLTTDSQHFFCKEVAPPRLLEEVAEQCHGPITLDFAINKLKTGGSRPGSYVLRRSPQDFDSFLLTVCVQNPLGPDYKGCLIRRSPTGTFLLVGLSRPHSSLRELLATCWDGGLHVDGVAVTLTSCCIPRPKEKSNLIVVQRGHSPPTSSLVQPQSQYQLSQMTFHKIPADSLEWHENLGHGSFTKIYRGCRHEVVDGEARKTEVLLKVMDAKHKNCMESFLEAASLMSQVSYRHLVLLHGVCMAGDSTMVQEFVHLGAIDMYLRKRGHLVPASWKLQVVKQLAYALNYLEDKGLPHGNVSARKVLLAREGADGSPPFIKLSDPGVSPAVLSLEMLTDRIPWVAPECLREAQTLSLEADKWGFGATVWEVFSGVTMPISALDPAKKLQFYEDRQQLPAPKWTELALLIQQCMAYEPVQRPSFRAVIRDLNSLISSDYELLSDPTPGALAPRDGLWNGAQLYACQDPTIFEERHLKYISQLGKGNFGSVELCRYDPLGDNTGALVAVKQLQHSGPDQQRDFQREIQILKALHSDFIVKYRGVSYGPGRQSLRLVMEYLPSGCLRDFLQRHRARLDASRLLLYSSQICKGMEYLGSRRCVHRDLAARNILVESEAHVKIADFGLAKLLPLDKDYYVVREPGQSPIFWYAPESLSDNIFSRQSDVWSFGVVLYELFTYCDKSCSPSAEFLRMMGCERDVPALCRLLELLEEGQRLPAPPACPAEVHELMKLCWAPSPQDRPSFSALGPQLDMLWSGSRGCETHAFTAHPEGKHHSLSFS
As to the kind of experiment: Inhibition of a panel of kinases, in vitro HotSpot kinase assay: JAK3. The procedure:
(§2) The degree of inhibition of a panel of kinases is determined using the in vitro HotSpot kinase assay (purified enzymes, ^33P-ATP, an appropriate substrate and 1 uM ATP).

In another experiment the target is Lck (Homo sapiens, UniProt P06239). Description: Lck kinase activity, TR-FRET assay. As to conditions: read-out: LCK (IC50). Put shortly:
as §1

Another experiment concerns the target EGFR (Homo sapiens, UniProt P00533). Description: Inhibition of a panel of kinases, in vitro HotSpot kinase assay: EGFR. The protocol: as §2

Chain of EGFR (P00533 25-1210): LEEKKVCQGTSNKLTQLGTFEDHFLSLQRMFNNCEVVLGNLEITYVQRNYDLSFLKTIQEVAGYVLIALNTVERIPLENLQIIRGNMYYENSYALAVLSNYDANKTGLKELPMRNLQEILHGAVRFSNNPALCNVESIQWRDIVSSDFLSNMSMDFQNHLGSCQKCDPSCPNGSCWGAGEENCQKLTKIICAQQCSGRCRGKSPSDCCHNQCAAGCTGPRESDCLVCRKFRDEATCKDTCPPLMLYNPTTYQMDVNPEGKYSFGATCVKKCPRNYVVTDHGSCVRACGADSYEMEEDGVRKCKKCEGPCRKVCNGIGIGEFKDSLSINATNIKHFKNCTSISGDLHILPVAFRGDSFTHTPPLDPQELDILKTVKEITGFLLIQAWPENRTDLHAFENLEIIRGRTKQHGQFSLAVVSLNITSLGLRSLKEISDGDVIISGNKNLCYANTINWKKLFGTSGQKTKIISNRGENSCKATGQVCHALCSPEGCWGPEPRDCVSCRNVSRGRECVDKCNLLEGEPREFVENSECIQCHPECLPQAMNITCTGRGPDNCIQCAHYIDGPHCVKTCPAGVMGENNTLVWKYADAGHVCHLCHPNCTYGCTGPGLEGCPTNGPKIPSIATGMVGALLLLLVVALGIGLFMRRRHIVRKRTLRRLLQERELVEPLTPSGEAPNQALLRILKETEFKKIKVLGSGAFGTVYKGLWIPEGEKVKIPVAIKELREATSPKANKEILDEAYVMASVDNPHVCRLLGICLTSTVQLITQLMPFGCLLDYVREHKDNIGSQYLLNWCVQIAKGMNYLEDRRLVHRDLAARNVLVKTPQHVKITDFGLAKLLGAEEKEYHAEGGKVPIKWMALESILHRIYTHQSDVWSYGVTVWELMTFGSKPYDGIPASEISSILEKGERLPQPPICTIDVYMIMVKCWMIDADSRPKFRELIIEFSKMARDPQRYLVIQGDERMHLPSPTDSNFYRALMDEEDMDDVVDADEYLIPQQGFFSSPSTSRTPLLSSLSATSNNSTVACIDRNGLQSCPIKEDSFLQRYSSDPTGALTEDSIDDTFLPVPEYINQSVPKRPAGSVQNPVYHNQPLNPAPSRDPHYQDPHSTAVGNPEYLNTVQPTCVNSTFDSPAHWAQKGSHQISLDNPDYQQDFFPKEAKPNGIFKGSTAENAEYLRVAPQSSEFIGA
Chain of Lck (P06239 whole entry, species assumed): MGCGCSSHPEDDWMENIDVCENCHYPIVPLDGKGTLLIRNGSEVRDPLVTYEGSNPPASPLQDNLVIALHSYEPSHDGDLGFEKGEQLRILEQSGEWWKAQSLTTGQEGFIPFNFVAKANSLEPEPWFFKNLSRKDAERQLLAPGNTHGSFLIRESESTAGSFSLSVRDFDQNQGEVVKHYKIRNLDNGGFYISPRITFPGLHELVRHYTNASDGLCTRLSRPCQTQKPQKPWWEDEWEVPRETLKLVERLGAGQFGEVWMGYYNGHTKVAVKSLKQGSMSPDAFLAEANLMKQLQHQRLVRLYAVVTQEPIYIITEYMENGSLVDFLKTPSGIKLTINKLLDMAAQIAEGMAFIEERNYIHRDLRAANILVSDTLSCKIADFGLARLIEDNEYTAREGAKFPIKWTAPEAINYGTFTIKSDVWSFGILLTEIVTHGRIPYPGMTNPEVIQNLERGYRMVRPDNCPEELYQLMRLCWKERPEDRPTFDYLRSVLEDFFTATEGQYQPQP
Chain of Btk (Q06187 whole entry): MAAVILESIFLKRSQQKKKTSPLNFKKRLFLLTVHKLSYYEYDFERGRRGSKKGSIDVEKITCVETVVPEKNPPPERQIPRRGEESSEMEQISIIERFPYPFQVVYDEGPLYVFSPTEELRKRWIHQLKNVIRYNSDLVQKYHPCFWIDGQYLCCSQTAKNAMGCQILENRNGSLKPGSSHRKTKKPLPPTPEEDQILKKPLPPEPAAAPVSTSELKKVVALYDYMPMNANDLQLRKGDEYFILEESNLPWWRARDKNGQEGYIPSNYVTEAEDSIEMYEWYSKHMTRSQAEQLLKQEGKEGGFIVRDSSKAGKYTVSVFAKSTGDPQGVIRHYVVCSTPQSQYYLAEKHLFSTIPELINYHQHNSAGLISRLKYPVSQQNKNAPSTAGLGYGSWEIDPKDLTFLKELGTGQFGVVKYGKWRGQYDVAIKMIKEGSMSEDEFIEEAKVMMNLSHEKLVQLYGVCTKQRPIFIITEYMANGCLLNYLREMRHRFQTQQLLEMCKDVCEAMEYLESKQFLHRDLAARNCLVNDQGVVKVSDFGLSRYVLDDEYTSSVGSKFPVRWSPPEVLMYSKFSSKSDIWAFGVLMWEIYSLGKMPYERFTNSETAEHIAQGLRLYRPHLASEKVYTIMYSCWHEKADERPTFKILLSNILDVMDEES

As to `Cc1ccnc(NC(=O)c2ccc(Oc3ccnc4[nH]nc(N[C@@H]5CCCN(C(=O)c6ccccc6F)C5)c34)cc2)c1` [compound 248, (R)-4-(3-(1-(2-fluorobenzoyl)piperidin-3-ylamino)-1H-pyrazolo[3,4-b]pyridin-4-yloxy)-N-(4-methylpyridin-2-yl)benzamide], the half-maximal inhibitory concentration (IC50) on Btk was less than 100 nM; against JAK3, greater than 10000 nM; on Lck it was 1000 to 10000 nM.

For the compound `Cc1ccnc(NC(=O)c2ccc(Oc3ccnc4[nH]nc(N[C@@H]5CCCN(C(=O)c6ncc[nH]6)C5)c34)cc2)c1` [compound 242, (R)-4-(3-(1-(1H-imidazole-2-carbonyl)piperidin-3-ylamino)-1H-pyrazolo[3,4-b]pyridin-4-yloxy)-N-(4-methylpyridin-2-yl)benzamide], the IC50 at Btk is less than 100 nM; against JAK3, greater than 10000 nM; at Lck, 100 to 1000 nM.

Take `Cc1ccnc(NC(=O)c2ccc(Oc3ccnc4[nH]nc(N[C@@H]5CCCN(C(=O)c6nccs6)C5)c34)cc2)c1` [compound 241, (R)—N-(4-methylpyridin-2-yl)-4-(3-(1-(thiazole-2-carbonyl)piperidin-3-ylamino)-1H-pyrazolo[3,4-b]pyridin-4-yloxy)benzamide]: the half-maximal inhibitory concentration (IC50) on Btk is less than 100 nM; against JAK3 it was greater than 10000 nM; at Lck, 100 to 1000 nM.

With `Cc1ccnc(NC(=O)c2ccc(Oc3ccnc4[nH]nc(N[C@@H]5CCCN(C(=O)C6(C)COC6)C5)c34)cc2)c1` [compound 86, 4-[(3-{[(3R)-1-(3-methyloxetane-3-carbonyl)piperidin-3-yl]amino}-1H-pyrazolo[3,4-b]pyridin-4-yl)oxy]-N-(4-methylpyridin-2-yl)benzamide], the values for the IC50 on Btk and at JAK3 were less than 100 nM and greater than 10000 nM, respectively.

For the compound `CC(=O)N1CCC[C@@H](Nc2n[nH]c3nccc(Nc4cccc(C(=O)Nc5ccc(C(C)C)c(C)c5)c4)c23)C1` [compound 131, 3-[(3-{[(3R)-1-acetylpiperidin-3-yl]amino}-1H-pyrazolo[3,4-b]pyridin-4-yl)amino]-N-[3-methyl-4-(propan-2-yl)phenyl]benzamide], the half-inhibitory concentration (IC50) is 100 to 1000 nM on Btk, greater than 10000 nM on JAK3 and 1000 to 10000 nM at Lck.

In the case of `Cc1cc(NC(=O)c2cccc(Nc3ccnc4[nH]nc(N[C@@H]5CCCN(C(=O)c6ccc(F)cc6)C5)c34)c2)ccc1C(C)C` [compound 130, 3-[(3-{[(3R)-1-(4-fluorobenzoyl)piperidin-3-yl]amino}-1H-pyrazolo[3,4-b]pyridin-4-yl)amino]-N-[3-methyl-4-(propan-2-yl)phenyl]benzamide], the values for the IC50 at Btk, against JAK3 and on Lck were 100 to 1000 nM, greater than 10000 nM and greater than 10000 nM, respectively.

For the compound `Cc1ccnc(NC(=O)c2ccc(Oc3ccnc4[nH]nc(N[C@@H]5CCCN(C(=O)c6ncco6)C5)c34)cc2)c1` [compound 240, (R)—N-(4-methylpyridin-2-yl)-4-(3-(1-(oxazole-2-carbonyl)piperidin-3-ylamino)-1H-pyrazolo[3,4-b]pyridin-4-yloxy)benzamide], the IC50 on Btk was less than 100 nM; against JAK3, greater than 10000 nM; on Lck it was 100 to 1000 nM.

Consider `COc1ccc(C(=O)N2CCC[C@@H](Nc3n[nH]c4nccc(Oc5ccc(C(=O)Nc6cc(C)ccn6)cc5)c34)C2)cc1` [compound 246, (R)-4-(3-(1-(4-methoxybenzoyl)piperidin-3-ylamino)-1H-pyrazolo[3,4-b]pyridin-4-yloxy)-N-(4-methylpyridin-2-yl)benzamide], for which the IC50 at Btk is less than 100 nM; against JAK3, greater than 10000 nM; on Lck, 1000 to 10000 nM.

For the compound `CCC(=O)N1CC[C@@H](Nc2n[nH]c3nccc(Oc4ccc(C(=O)Nc5ncc(C)s5)cc4)c23)C1` [compound 72, N-(5-methyl-1,3-thiazol-2-yl)-4-[(3-{[(3R)-1-propanoylpyrrolidin-3-yl]amino}-1H-pyrazolo[3,4-b]pyridin-4-yl)oxy]benzamide], the IC50 against JAK3 was 1000 to 10000 nM.

With `CN(C)C/C=C/C(=O)N1CCCC(c2n[nH]c3nccc(Oc4ccc(Oc5ccccc5)cc4)c23)C1` (stereo not drawn) [compound 32, (2E)-4-(dimethylamino)-1-{3-[4-(4-phenoxyphenoxy)-1H-pyrazolo[3,4-b]pyridin-3-yl]piperidin-1-yl}but-2-en-1-one], the IC50 against EGFR is 100 to 1000 nM; at Btk, less than 100 nM; on Lck, less than 100 nM.

For the compound `CN(C)C/C=C/C(=O)N1CC[C@@H](Nc2n[nH]c3nccc(Oc4ccc(Oc5ccccc5)cc4C#N)c23)C1` [compound 34, 2-[(3-{[(3R)-1-[(2E)-4-(dimethylamino)but-2-enoyl]pyrrolidin-3-yl]amino}-1H-pyrazolo[3,4-b]pyridin-4-yl)oxy]-5-phenoxybenzonitrile], the half-maximal inhibitory concentration (IC50) at EGFR was 1000 to 10000 nM; on Btk, less than 100 nM; at Lck it was 100 to 1000 nM.

Turning to `CCC(=O)N1CC[C@@H](Nc2n[nH]c3nccc(Oc4ccc(C(=O)Nc5nccc(=O)[nH]5)cc4)c23)C1` [compound 74, N-(6-oxo-1,6-dihydropyrimidin-2-yl)-4-[(3-{[(3R)-1-propanoylpyrrolidin-3-yl]amino}-1H-pyrazolo[3,4-b]pyridin-4-yl)oxy]benzamide], the IC50 on EGFR, on Btk and on Lck was greater than 10000 nM in each case.

In the case of `C=CC(=O)N1CC[C@@H](Nc2c[nH]c3nccc(Oc4ccc(Cl)cc4)c23)C1` [compound 7, 1-[(3R)-3-{[4-(4-chlorophenoxy)-1H-pyrrolo[2,3-b]pyridin-3-yl]amino}pyrrolidin-1-yl]prop-2-en-1-one], the figures for the IC50 at EGFR, on Btk and on Lck were 1000 to 10000 nM, less than 100 nM and 1000 to 10000 nM, respectively.

On to `Cc1cnc(NC(=O)c2ccc(Oc3ccnc4[nH]nc(C5CCCN(C(=O)C6CC6)C5)c34)cc2)s1` (stereo not drawn) [compound 193], for which the IC50 at EGFR was 1000 to 10000 nM; at Btk it was 100 to 1000 nM; on Lck, greater than 10000 nM.

With `CN(C/C=C/C(=O)N1CC[C@@H](Nc2n[nH]c3nccc(Oc4ccc(Oc5ccccc5)cc4)c23)C1)C1CC1` [compound 10, (2E)-4-[cyclopropyl(methyl)amino]-1-[(3R)-3-{[4-(4-phenoxyphenoxy)-1H-pyrazolo[3,4-b]pyridin-3-yl]amino}pyrrolidin-1-yl]but-2-en-1-one], the values for the IC50 on EGFR, on Btk and at Lck were 100 to 1000 nM, less than 100 nM and less than 100 nM, respectively.

For `CC(=O)N1CC[C@@H](Nc2n[nH]c3nccc(Oc4ccc(Oc5ccccc5)cc4)c23)C1` [compound 46], the IC50 is 100 to 1000 nM on EGFR, less than 100 nM at Btk and less than 100 nM on Lck.

Regarding `Cc1ccnc(NC(=O)c2ccc(Oc3ccnc4[nH]nc(N[C@@H]5CCCN(C(=O)N6CCOCC6)C5)c34)cc2)c1` [compound 91, N-(4-methylpyridin-2-yl)-4-[(3-{[(3R)-1-(morpholine-4-carbonyl)piperidin-3-yl]amino}-1H-pyrazolo[3,4-b]pyridin-4-yl)oxy]benzamide], the figures for the IC50 against EGFR, at Btk and at Lck were greater than 10000 nM, less than 100 nM and 1000 to 10000 nM, respectively.

As for `CN(C)C/C=C/C(=O)N1CC[C@@H](Oc2n[nH]c3nccc(Nc4ccc(Oc5ccccc5)cc4)c23)C1` [compound 14, (2E)-4-(dimethylamino)-1-[(3R)-3-({4-[(4-phenoxyphenyl)amino]-1H-pyrazolo[3,4-b]pyridin-3-yl}oxy)pyrrolidin-1-yl]but-2-en-1-one], the IC50 against EGFR, at Btk and on Lck was less than 100 nM throughout.
